Reference: patent US11865099B2, “Product based on iron bis-glycinate chelate and alginic acid and/or water-soluble salts thereof, formulations thereof, and pharmaceutical uses thereof” (LABORATORI BALDACCI S.P.A., priority 2015, dated 2024)

Assay: Iron dissolution test, rotating basket apparatus, sample in dialysis membrane, 0.01 N HCl
Assay type: physicochemical
Conditions: for percentage of dissolved iron: after 120 minutes; for dissolution rate: sample in 1.0 ml 0.01 N HCl (method A) in dialysis membrane, linear trend
[1] = 1.0 ml 0.01 N HCl, dialysis membrane

Procedure: The dissolution test was performed with rotating basket apparatus according to Eur. Pharmacopoeia 9th Edition choosing hydrochloric acid to simulate the gastric fluid.
A first series of assays were performed placing the product into a dialysis membrane with adequate volumes of hydrochloric acid (1.0 or 2.0 ml). In this case, the dissolution medium was 0.01 N (pH=2) hydrochloric acid, as the dialysis membrane is not compatible with pH values lower than 2.
Experimental method: the dialysis membrane (Spectrum Labs Spectra/Por 3; MWCO; 3500 kDa) was hydrated for one night (16 hours) in deionized water before the test. […] The bags were closed and placed into the basket of the dissolution apparatus.
Then, the basket was immersed in 100 ml of 0.01 N HCl and the dissolution test was carried out at a temperature of 37° C. with a rotation speed of 75 rpm/min, withdrawing, at appropriate times, samples of dissolution phase that were immediately replaced with fresh solvent in order to maintain constant sink condition.
Experimental method: after hydration of the dialysis membrane for one night in deionized water, three exactly weighted samples of Feralgina® having different weights (range 20-30 mg) were dissolved with 1.0 ml (method A) or with 2.0 ml (method B) of hydrochloric acid (0.01 N) and the resulting solutions were placed into the hydrated dialysis membrane. The bags were perfectly closed and placed into the basket of the dissolution apparatus. […] The basket was immersed in 100 ml of 0.01 N HCl at a temperature of 37° C., with a rotation speed of 75 rpm/min, collecting samples of dissolution medium at appropriate times immediately replaced with fresh solvent in order to keep the dissolution constant (sink condition).
The dissolution tests of TecnoFERPlus were performed with two different experimental methods that involved, in one case, the use of the dialysis membrane and experimental conditions similarly to those followed for iron sulfate and iron bisglycinate with different volumes of hydrochloric acid 0.01 N, and in the second one, the use of TecnoFERPlus (capsule) without the dialysis membrane.

Row | SMILES | amount of iron dissolved in the medium, of the total content (after 15 minutes, 1.0 ml 0.01 N HCl, dialysis membrane) | percentage of dissolved iron [1] | dissolution rate [min⁻¹]
1 | NCC(=O)[O][Fe][O]C(=O)CN [Iron bis-glycinate chelate] | about 20% | about 60% | 0.378
2 | O=S(=O)([O-])[O-].[Fe+2] [iron sulphate] |  | about 61% | 0.439
